Patent US20070093548A1 (Wyeth, priority 2005, published 2007)
Like-named read-outs stand apart in the source and are kept apart here.

Key:
[1] = target: T1, progesterone receptor (PR) (Homo sapiens, UniProt P06401); test: Progesterone Receptor Whole Cell Competition Binding Assay Using T47D Cells; conditions: 3H-progesterone 3 nM, read-out: Example 18B 'T47D PR whole cell binding Assay' IC50
T1 construct: in live, intact (whole) cells, using the human breast carcinoma T47D cell line; endogenous in cells; host or cells: T47D human breast carcinoma cells (live, intact)
T1 sequence (P06401 1-933): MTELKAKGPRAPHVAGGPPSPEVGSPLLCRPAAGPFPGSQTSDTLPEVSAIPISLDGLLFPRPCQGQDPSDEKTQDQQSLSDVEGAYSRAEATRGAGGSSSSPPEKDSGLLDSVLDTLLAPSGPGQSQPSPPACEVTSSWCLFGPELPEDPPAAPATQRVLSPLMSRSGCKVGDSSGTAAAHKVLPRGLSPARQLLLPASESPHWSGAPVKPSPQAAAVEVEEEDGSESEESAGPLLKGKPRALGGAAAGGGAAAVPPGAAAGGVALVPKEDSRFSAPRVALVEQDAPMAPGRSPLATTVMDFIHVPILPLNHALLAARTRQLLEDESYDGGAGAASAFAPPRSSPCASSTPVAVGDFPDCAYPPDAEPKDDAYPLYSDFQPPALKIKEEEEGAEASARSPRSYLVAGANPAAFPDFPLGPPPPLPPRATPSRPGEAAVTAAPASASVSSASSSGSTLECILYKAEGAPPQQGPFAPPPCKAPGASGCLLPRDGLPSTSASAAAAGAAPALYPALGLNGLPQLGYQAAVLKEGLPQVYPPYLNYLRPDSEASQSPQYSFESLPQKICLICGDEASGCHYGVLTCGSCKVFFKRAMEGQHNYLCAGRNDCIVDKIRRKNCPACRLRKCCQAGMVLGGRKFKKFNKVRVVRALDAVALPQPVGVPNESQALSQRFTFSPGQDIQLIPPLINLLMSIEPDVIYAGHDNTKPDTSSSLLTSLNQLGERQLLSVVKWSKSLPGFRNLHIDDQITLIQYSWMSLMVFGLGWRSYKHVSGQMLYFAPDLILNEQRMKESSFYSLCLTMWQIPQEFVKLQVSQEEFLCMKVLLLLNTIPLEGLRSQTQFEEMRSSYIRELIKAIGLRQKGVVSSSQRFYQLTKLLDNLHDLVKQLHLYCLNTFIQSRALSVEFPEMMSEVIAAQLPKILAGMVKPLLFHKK
Procedure: 1. Culture medium: 5% RC: phenol red free DMEM:F12 (1:1) (GIBCO, BRL) supplemented with 5% (v/v) charcoal stripped fetal bovine serum (not heat-inactivated), 100 U/ml penicillin, 100 ug/ml streptomycin, and 2 mM GlutaMax (GIBCO, BRL).
2. T47D cell culture: T47D cells are maintained in 10% RC media at 37° C. in a 5% CO2/humidified atmosphere and need to be split twice weekly for proper response. Cells are plated in 10% RC the day before binding assay at 50,000 cells per well in the white, clear bottom plates purchased through VWR or Perkin Elmer.
Cells plated the day prior to the assay in white clear bottom plates are used. A master compound plate is set up containing control and test compounds at 20× final desired concentration for the competition binding. A typical dose range of 20× concentrations are (in nM); 200,000; 20,000; 6000; 2000; 600; 200; 20; and 2. Final concentrations are then (in nM); 10,000; 1000; 300; 100; 30; 10; 1; 0.1.
Media on cells is replaced with 180 μl of 5% RC. […] Compounds are incubated for 3 hrs at 37° C. […] Following incubation, media is carefully removed and cells are washed 3× with 200 μl 5% RC each wash. 50 μl of liquid scintillation cocktail is added and the plates are shaken vigorously for a minimum of 15 minutes.
Square root-transformed data are used for analysis of variance and calculation of IC50 SAS software (SAS Institute, Inc.) is used for all the statistical analysis.

[2] = tested on: alkaline phosphatase activity in T47D cells; test: T47D Cell Alkaline Phosphatase Assay; assay type: cell-based, human; conditions: antagonist mode, in the presence of 1 nM progesterone, read-out: Example 18A 'T47D Cell Alkaline Phosphatase Assay' IC50
Procedure: A. Effects of Progestins and Antiprogestins on Alkaline Phosphatase Activity in T47D Cells—T47D Cell Alkaline Phosphatase Assay
The purpose of this assay is to identify progestins or antiprogestins by determining a compound's effect on alkaline phosphatase activity in T47D cells. The materials and methods are as follows.
Culture medium: DMEM:F12 (1:1) (GIBCO, BRL) supplemented with 5% (v/v) charcoal stripped fetal bovine serum (not heat-inactivated), 100 U/ml penicillin, 100 ug/ml streptomycin, and 2 mM GlutaMax (GIBCO, BRL).
Alkaline phosphatase assay buffer:
I. 0.1M Tris-HCl, pH 9.8, containing 0.2% Triton X-100
II. 0.1M Tris-HCl, pH 9.8, containing 4 mM p-nitrophenyl phosphate (Sigma).
Frozen T47D cells are thawed in a 37° C. water bath and diluted to 280,000 cells/ml in culture medium. To each well in a 96-well plate (Falcon, Becton Dickinson Labware), 180 μl of diluted cell suspension is added. 20 μl of reference or test compounds diluted in the culture medium is then added to each well. […] The cells are incubated at 37° C. in a 5% CO2/humidified atmosphere for 24 hours. NOTE: For high throughput screening, one concentration of each compound is tested at 0.3 μg/ml. Based on an average molecular weight of 300 g/mol for the compounds in the library, the concentration is approximately 1 μM.
At the end of treatment, the medium is removed from the plate. 50 μl of assay buffer I is added to each well. The plates are shaken in a titer plate shaker for 15 min. Then 150 μl of assay buffer II is added to each well.
Subsequent dose response data for screening hits will be evaluated as described below. Analysis of dose-response data. For reference and test compounds, a dose response curve is generated for dose (X-axis) vs. the rate of enzyme reaction (slope) (Y-axis). Square root-transformed data are used for analysis of variance and nonlinear dose response curve fitting for both agonist and antagonist modes. Huber weighting is used to downweight the effects of outliers. EC50 or IC50 values are calculated from the retransformed values.
Percent (%) of induction for agonists at the tested concentrations. […] The default concentration is in the nM range.

[3] = tested on: alkaline phosphatase activity in T47D cells; test: T47D Cell Alkaline Phosphatase Assay; assay type: cell-based; conditions: Homo sapiens, read-out: Example 18A 'T47D Cell Alkaline Phosphatase Assay' Inhibition (%)

In the case of CCC(C)c1c(OC)ccc2c1oc1ccc(C#N)cc12 (racemic) [Example 12, 6-sec-butyl-7-methoxydibenzo[b,d]furan-2-carbonitrile], the melting point is reported as 80 to 82 °C, the IC50 [1] is reported as 0.0597 µM and the IC50 ([2]; Homo sapiens, T47D, 24 h) is reported as 0.0185 µM.
In the case of CCC(C)c1c(O)ccc2c1oc1ccc(C#N)cc12 (racemic) [Example 13, 6-sec-butyl-7-hydroxydibenzo[b,d]furan-2-carbonitrile], the melting point is reported as 206 to 207 °C, the IC50 [1] is reported as 0.0367 µM and the IC50 ([2]; Homo sapiens, T47D, 24 h) is reported as 0.019 µM.
Molecule CCC(C)c1c(O)ccc2c1oc1ccc(C#N)cc12 (single isomer, unassigned; (+)) [Example 14, (+)-6-sec-butyl-7-hydroxydibenzo[b,d]furan-2-carbonitrile] has an IC50 [1] of 0.0415 µM and an IC50 [2] of 0.022 µM.
CCC(C)c1c(OC)ccc2c1oc1ccc(C#N)cc12 (single isomer, unassigned; (+)) [Example 16, (+)-6-sec-butyl-7-methoxydibenzo[b,d]furan-2-carbonitrile] showed an IC50 [2] of 0.013 µM.
CCC(C)c1c(O)ccc2c1oc1ccc(C#N)cc12 (single isomer, unassigned; (-)) [Example 15, (−)-6-sec-butyl-7-hydroxydibenzo[b,d]furan-2-carbonitrile] showed an IC50 [1] of 0.0812 µM and an IC50 [2] of 0.148 µM.
Work on CCC(C)c1c(OC)ccc2c1oc1ccc(C#N)cc12 (single isomer, unassigned; (-)) [Example 17, (−)-6-sec-butyl-7-methoxydibenzo[b,d]furan-2-carbonitrile] yielded an IC50 [2] of 0.03 µM.
Molecule COc1ccc2c(c1)oc1ccc(C#N)cc12 [Example 1, 7-methoxydibenzo[b,d]furan-2-carbonitrile] has an IC50 ([2]; Homo sapiens, T47D, 24 h) of 0.259 µM.
N#Cc1ccc2oc3cc(O)ccc3c2c1 [Example 2, 7-hydroxydibenzo[b,d]furan-2-carbonitrile] showed a melting point of 270 to 271 °C and an IC50 ([2]; Homo sapiens, T47D, 24 h) of 0.534 µM.
With N#Cc1ccc2oc3c(Br)c(O)c(F)cc3c2c1 [Example 3, 6-bromo-8-fluoro-7-hydroxydibenzo[b,d]furan-2-carbonitrile] the melting point was 270 °C (dec.).
Work on Cc1ccccc1-c1c(O)c(F)cc2c1oc1ccc(C#N)cc12 [Example 4, 8-fluoro-7-hydroxy-6-(2-methylphenyl)dibenzo[b,d]furan-2-carbonitrile] yielded an inhibition at 3 µM [3] of 50%.
With N#Cc1ccc2oc3cc(O)c(F)cc3c2c1 [Example 6, 8-fluoro-7-hydroxydibenzo[b,d]furan-2-carbonitrile] the melting point was 270 °C (dec.).
Molecule COc1cc2oc3ccc(C#N)cc3c2cc1F [Example 7, 8-fluoro-7-methoxydibenzo[b,d]furan-2-carbonitrile] has a melting point of 206 to 208 °C and an inhibition at 3 µM [3] of 65%.
With N#Cc1ccc2oc3c(-c4ccccc4F)c(O)c(F)cc3c2c1 [Example 8, 8-fluoro-6-(2-fluorophenyl)-7-hydroxydibenzo[b,d]furan-2-carbonitrile] the inhibition at 3 µM [3] was 40%.
For COc1ccc2c(oc3ccc(C#N)cc32)c1C(C)C [Example 9, 6-isopropyl-7-methoxydibenzo[b,d]furan-2-carbonitrile], the IC50 ([2]; Homo sapiens, T47D, 24 h) was 0.048 µM.
In the case of CC(C)c1c(O)ccc2c1oc1ccc(C#N)cc12 [Example 10, 7-hydroxy-6-isopropyldibenzo[b,d]furan-2-carbonitrile], the melting point is reported as 180 to 182 °C, the IC50 [1] is reported as 0.0211 µM and the IC50 ([2]; Homo sapiens, T47D, 24 h) is reported as 0.028 µM.
N#Cc1ccc2oc3c(C4CCCC4)c(O)ccc3c2c1 [Example 11, 6-cyclopentyl-7-hydroxydibenzo[b,d]furan-2-carbonitrile] showed an IC50 ([2]; Homo sapiens, T47D, 24 h) of 0.05 µM.
